From patent publication US11672788B2, “Histone deacetylase inhibitors for immunomodulation in tumor microenvironment” (GREAT NOVEL THERAPEUTICS BIOTECH & MEDICALS CORPORATION, priority 2020, dated 2023)

Columns and labels:
[1] = test system: NCI-N87; assay: In vitro cytotoxicity MTT assay; format: cell-based; conditions: Homo sapiens, 72 h, IC50 ± SD
Method: (§1) Six different cell lines were used, including human breast cancer cell line MDA-MB-231 (6×10^3), MDA-MB-453 (2.4×10^4), SK-BR-3 (6×10^3), human breast epithelial cell line M10 (6×10^3), human gastric carcinoma NCI-N87 (2.4×10^4), and human colorectal adenocarcinoma SW48 (2.4×10^4), and seeded in a 96 well plate. Cell lines were obtained from Bioresource Collection and Research Center, BCRC, Taiwan. […] After 72 h, MTT assay (Cayman™) was used to determine the cellular viability.

[2] = test system: histone H3 acetylation (AcH3) in SW48 cells; assay: Western blot of histone H3 acetylation; format: cell-based, human; conditions: SW48, 24 h, FIG. 12c
Method: Human breast cancer MDA-MB-231 cells and human colorectal adenocarcinoma SW48 cells were analyzed. MDA-MB-231 and SW48 were obtained from Bioresource Collection and Research Center (BCRC, Taiwan). MDA-MB-231 and SW48 were grown at 37° C. under humidified air supplemented without CO2 in Leibovitz's L-15 (cat. #11415114, Thermo Fisher Scientific) containing 10% heat inactivated fetal calf serum (Thermo Scientific), 1× concentration of MycoZap antibiotics (cat. #VZA-2011, Lonza). Cells were treated with GNTbm compounds series, Chidamide or Entinostat for different time periods or at varied doses. Cells were treated with indicated doses for 24 h or cells were treated with indicated doses for different time periods. Cell pellets were dissolved with RIPA buffer (cat. #20-188, Merck) with protease and phosphatase inhibitors (cat. #K272, BioVision) and clarified by centrifugation. Equal amounts of total protein were resolved by SDS-PAGE and transferred to polyvinylidene fluoride membranes (cat. #1620177, BIO-RAD). Blots were incubated with primary antibodies against β-actin (cat. #sc-47778, Santa Cruz Biotechnology), Histone 3ac (cat. #61637, Active Motif), and HRP secondary antibodies anti-rabbit (ab6721, Abcam) and anti-mouse (sc-2005, Santa Cruz). Blots were developed using the ECL Western Blotting Substrate (cat. #sc-2048, Santa Cruz Biotechnology) Image blots were analyzed with the iBright FL1000 (Thermo Fisher Scientific) imaging systems.

[3] = test system: SW48 cells; assay: Cell apoptosis (sub-G1) by PI flow cytometry; format: cell-based, human; conditions: 72 h; for Induction of apoptosis: SW48, indicated doses (Table 13)
Method: (§2) A PI/RNase staining assay (BD Bioscience™) was performed to reveal the presence of cell cycle arrest and apoptotic cells after treatment with GNTbm compounds, Chidamide and Entinostat. […] After treatment cells were harvested, fixed with 80% ethanol for 24 h, washed with 1×PBS and stained with PI/RNase for 15 min at room temperature. The cells were then analyzed using Flow Cytometer within 1 h.

[4] = target: HDAC2 (Homo sapiens (Human), UniProt Q92769); assay: HDACs 1, 2, and 3 enzymatic inhibition (fluorogenic kit, 1 h); format: biochemical; conditions: 37° C.
Method: (§3) HDACs assay was performed according to standard Protocols (Fluorgenic HDACs 1, 2, and 3 assay kit, BPS Bioscience™). […] After 1 h, assay developer was added to the samples and the absorbance was read at fluorogenic wavelength. The relative inhibition to HDACs 1, 2, and 3 activities in each sample was determined.

[5] = target: HDAC3 (Homo sapiens (Human), UniProt O15379); assay: as above; format: biochemical; conditions: 37° C.
Method: as §3

[6] = target: HDAC1 (Homo sapiens (Human), UniProt Q13547); assay: as above; format: biochemical; conditions: 37° C.
Method: as §3

[7] = test system: MDA-MB-453; assay: In vitro cytotoxicity MTT assay; format: cell-based, human; conditions: Homo sapiens, MDA-MB-453, 72 h, IC50 ± SD
Method: as §1

[8] = test system: MDA-MB-231; assay: In vitro cytotoxicity MTT assay; format: cell-based, human; conditions: Homo sapiens, MDA-MB-231, 72 h, IC50 ± SD
Method: as §1

[9] = test system: SW48; assay: In vitro cytotoxicity MTT assay; format: cell-based, human; conditions: Homo sapiens, SW48, 72 h, IC50 ± SD
Method: as §1

[10] = test system: M10; assay: In vitro cytotoxicity MTT assay; format: cell-based, human; conditions: Homo sapiens, M10, 72 h, IC50 ± SD
Method: as §1

[11] = test system: SW48 cells; assay: Cell cycle arrest by PI flow cytometry; format: cell-based, human; conditions: for Percentage of Cell Cycle Distribution G0/G1 / Percentage of Cell Cycle Distribution G2/M / Percentage of Cell Cycle Distribution S: 72 h; for Cell cycle arrest: SW48, doses of Table 12
Method: as §2

[12] = Saturation solubility; format: physicochemical; conditions: ddH2O, 25° C., 90 minutes; mean ± SD; BDL: Below detection limit
Method: Samples of 5 mg of compounds were added to 5 ml volumetric flasks containing ddH2O and shaken at 100 rpm in an incubator at 25° C. for 90 minutes. The resulting suspension was filtered through a 0.22 μm filter. The concentrations of compounds were determined spectrophotometrically at 256 nm. The saturation solubility of each sample was determined in triplicates and the mean value and standard deviation were reported.

Sequence of HDAC3 (O15379 whole entry): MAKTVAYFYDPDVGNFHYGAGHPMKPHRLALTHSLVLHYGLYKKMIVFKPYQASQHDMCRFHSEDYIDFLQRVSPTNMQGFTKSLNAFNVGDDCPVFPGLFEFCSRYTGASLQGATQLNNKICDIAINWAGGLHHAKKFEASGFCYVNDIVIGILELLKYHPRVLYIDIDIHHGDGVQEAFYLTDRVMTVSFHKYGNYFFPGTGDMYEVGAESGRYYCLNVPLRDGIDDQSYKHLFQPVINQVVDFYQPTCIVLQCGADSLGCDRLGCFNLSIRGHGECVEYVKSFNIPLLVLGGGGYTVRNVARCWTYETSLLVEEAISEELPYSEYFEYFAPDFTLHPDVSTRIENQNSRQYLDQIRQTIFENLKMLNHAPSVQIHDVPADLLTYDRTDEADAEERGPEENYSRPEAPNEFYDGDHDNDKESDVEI
Sequence of HDAC3 (Q9Y618 395-489 partner): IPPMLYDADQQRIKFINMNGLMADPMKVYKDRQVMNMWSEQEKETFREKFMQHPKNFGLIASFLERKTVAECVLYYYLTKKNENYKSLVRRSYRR
Sequence of HDAC2 (Q92769 whole entry): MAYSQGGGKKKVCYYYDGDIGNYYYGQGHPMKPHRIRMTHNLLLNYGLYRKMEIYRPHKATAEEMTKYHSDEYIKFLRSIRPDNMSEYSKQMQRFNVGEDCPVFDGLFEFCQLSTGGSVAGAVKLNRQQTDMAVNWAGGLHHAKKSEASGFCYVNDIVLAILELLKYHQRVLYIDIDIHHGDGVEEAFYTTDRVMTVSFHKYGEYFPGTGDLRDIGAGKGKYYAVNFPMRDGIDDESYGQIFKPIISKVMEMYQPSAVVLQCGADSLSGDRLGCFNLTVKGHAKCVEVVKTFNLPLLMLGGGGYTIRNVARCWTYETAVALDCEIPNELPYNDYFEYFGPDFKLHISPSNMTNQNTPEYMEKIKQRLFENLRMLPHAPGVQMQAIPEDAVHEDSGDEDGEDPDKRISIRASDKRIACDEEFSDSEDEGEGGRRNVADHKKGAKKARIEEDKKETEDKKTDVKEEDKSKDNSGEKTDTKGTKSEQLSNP
Sequence of HDAC1 (Q13547 whole entry): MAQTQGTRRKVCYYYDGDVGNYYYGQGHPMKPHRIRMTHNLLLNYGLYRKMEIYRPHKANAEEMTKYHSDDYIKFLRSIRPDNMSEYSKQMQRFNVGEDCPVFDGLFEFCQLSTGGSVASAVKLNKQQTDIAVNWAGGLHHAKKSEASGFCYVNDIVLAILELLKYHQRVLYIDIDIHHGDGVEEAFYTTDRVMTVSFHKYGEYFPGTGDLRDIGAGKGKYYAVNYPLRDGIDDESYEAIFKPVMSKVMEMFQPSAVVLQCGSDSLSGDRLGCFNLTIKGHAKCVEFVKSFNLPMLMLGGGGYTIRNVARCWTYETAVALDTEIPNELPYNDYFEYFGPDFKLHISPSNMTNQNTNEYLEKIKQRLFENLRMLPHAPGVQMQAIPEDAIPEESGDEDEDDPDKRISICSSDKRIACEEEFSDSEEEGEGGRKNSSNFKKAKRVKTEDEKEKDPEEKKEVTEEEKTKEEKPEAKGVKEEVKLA

Row | SMILES | IC50 [1] [µM] | IC50 [4] [µM] | IC50 [5] [µM] | IC50 [6] [µM] | IC50 [7] [µM] | IC50 [8] [µM] | IC50 [9] [µM] | IC50 [10] [µM] | also measured
1 | Nc1ccccc1NC(=O)c1ccc(NC(=O)C/C=C/c2cccnc2)cn1 [GNTbm-05, 5-((E)-4-(pyridin-3-yl)but-3-enamido)-N-(2-aminophenyl)pyridine-2-carboxamide] | 0.28 ± 0.01 | 0.36 ± 0.02 | 0.001 ± 4e-05 | 0.14 ± 0.002 | 1.58 ± 0.003 | 1.66 ± 0.02 | 1.64 ± 0.02 | 0.43 ± 0.03 | Histone 3 acetylation expression versus Chidamide [2]: more potent in inducing the histone 3 acetylation expression in SW48 cells than Chidamide; Percentages of Cell Apoptosis ([3]; SW48, 0.125 μM): 9.0%; Percentages of Cell Apoptosis ([3]; SW48, 0.5 μM): 17.9%; Percentages of Cell Apoptosis ([3]; SW48, 1 μM): 27.2%; Percentages of Cell Apoptosis ([3]; SW48, 2 μM): 42.4%; Induction of apoptosis [3]: potent in inducing apoptosis in SW48 cells; Percentage of Cell Cycle Distribution G0/G1 ([11]; SW48, 0.125 μM): 61.5%; Percentage of Cell Cycle Distribution G2/M ([11]; SW48, 0.125 μM): 18.7%; Percentage of Cell Cycle Distribution S ([11]; SW48, 0.125 μM): 19.8%; Percentage of Cell Cycle Distribution G0/G1 ([11]; SW48, 0.5 μM): 59.2%; Percentage of Cell Cycle Distribution G2/M ([11]; SW48, 0.5 μM): 22.2%; Percentage of Cell Cycle Distribution S ([11]; SW48, 0.5 μM): 18.6%; Percentage of Cell Cycle Distribution G0/G1 ([11]; SW48, 1 μM): 55.4%; Percentage of Cell Cycle Distribution G2/M ([11]; SW48, 1 μM): 31.8%; Percentage of Cell Cycle Distribution S ([11]; SW48, 1 μM): 12.8%; Percentage of Cell Cycle Distribution G0/G1 ([11]; SW48, 2 μM): 53.6%; Percentage of Cell Cycle Distribution G2/M ([11]; SW48, 2 μM): 34.6%; Percentage of Cell Cycle Distribution S ([11]; SW48, 2 μM): 11.8%; Cell cycle arrest [11]: significantly induced cell cycle arrest in the G2/M phase in SW48 cells
2 | Cc1ccc(/C=C/CC(=O)Nc2ccc(C(=O)Nc3ccccc3N)nc2)cn1 [GNTbm-06, 5-((E)-4-(6-methylpyridin-3-yl)but-3-enamido)-N-(2-aminophenyl)pyridine-2-carboxamide] | 2.2 ± 0.03 | 0.39 ± 0.02 | 0.009 ± 0.01 | 0.1 ± 0.02 | 1.59 ± 0.01 | 3.87 ± 0.7 | 2.32 ± 0.08 | 1.95 ± 0.03 | Saturation Solubility [12]: BDL
3 | Cc1ccc(CCCC(=O)Nc2ccc(C(=O)Nc3ccc(F)cc3N)nc2)cn1 [GNTbm-08, 5-(4-(6-methylpyridin-3-yl)butanamido)-N-(2-amino-4-fluorophenyl)pyridine-2-carboxamide] | 15.5 ± 1.7 | 1.54 ± 0.28 | 0.001 ± 2e-05 | 0.37 ± 0.31 | 3.78 ± 0.5 | > 50 | 18.4 ± 1 | 20.8 ± 0.14 | 
4 | Nc1cc(C(F)(F)F)ccc1NC(=O)c1ccc(NC(=O)C/C=C/c2cccnc2)cn1 [GNTbm-11, 5-((E)-4-(pyridin-3-yl)but-3-enamido)-N-(2-amino-4-(trifluoromethyl)phenyl)pyridine-2-carboxamide] | 1.87 ± 0.04 | > 20 | 0.001 | > 20 | 2.28 ± 0.06 | 1.71 ± 0.04 | 2.6 ± 0.45 | 1.65 ± 0.2 | 
5 | Cc1ccc(/C=C/CC(=O)Nc2ccc(C(=O)Nc3ccc(C(F)(F)F)cc3N)nc2)cn1 [GNTbm-12, 5-((E)-4-(6-methylpyridin-3-yl)but-3-enamido)-N-(2-amino-4-(trifluoromethyl)phenyl)pyridine-2-carboxamide] | > 50 | > 20 | > 20 | > 20 | 15.8 ± 3.9 | > 50 | > 50 | 38.5 ± 5.9 | 
6 | Cc1ccc(CCCC(=O)Nc2ccc(C(=O)Nc3ccccc3N)nc2)cn1 [GNTbm-19, 5-(4-(6-methylpyridin-3-yl)butanamido)-N-(2-aminophenyl)pyridine-2-carboxamide] | 4.3 ± 1.4 | 1.42 ± 0.19 | 2.98 ± 0.08 | 0.48 ± 0.03 | 1.81 ± 0.02 | 5.69 ± 1.7 | 8.73 ± 0.24 | 2.89 ± 0.12 | 
7 | Cc1ccc(CCCC(=O)Nc2ccc(C(=O)Nc3ccc(C(F)(F)F)cc3N)nc2)cn1 [GNTbm-25, 5-(4-(6-methylpyridin-3-yl)butanamido)-N-(2-amino-4-(trifluoromethyl)phenyl)pyridine-2-carboxamide] | > 50 | > 20 | > 20 | > 20 | 19.1 ± 2.07 | > 50 | > 50 | > 50 | 
8 | Nc1cc(C(F)(F)F)ccc1NC(=O)c1ccc(NC(=O)C/C=C/c2cccnc2)cc1 [GNTbm-33, 4-((E)-4-(pyridin-3-yl)but-3-enamido)-N-(2-amino-4-(trifluoromethyl)phenyl)benzamide] | 1.75 ± 0.02 | > 20 | > 20 | > 20 | 1.94 ± 0.22 | 1.62 ± 0.02 | 1.79 ± 0.03 | 2.01 ± 0.09 | 
9 | Nc1cc(F)ccc1NC(=O)c1ccc(NC(=O)CCCc2cccnc2)cc1 [GNTbm-37, 4-(4-(pyridin-3-yl)butanamido)-N-(2-amino-4-fluorophenyl)benzamide] | 10.7 ± 0.6 | 3.15 ± 0.31 | 1.74 ± 0.29 | 9.04 ± 0.6 | 4.89 ± 0.34 | 8.07 ± 0.54 | 21.3 ± 1.64 | 8.85 ± 0.59 | 
10 | Nc1ccccc1NC(=O)c1ccc(NC(=O)C/C=C/c2cccnc2)cc1 [GNTbm-38, 4-((E)-4-(pyridin-3-yl)but-3-enamido)-N-(2-aminophenyl)benzamide] | 0.42 ± 0.08 | 0.28 ± 0.01 | 1.2 ± 0.01 | 0.69 ± 0.03 | 1.67 ± 0.01 | 3.55 ± 0.45 | 1.64 ± 0.005 | 1.99 ± 0.06 | Histone 3 acetylation expression versus Chidamide [2]: more potent in inducing the histone 3 acetylation expression in SW48 cells than Chidamide; Percentages of Cell Apoptosis ([3]; SW48, 0.125 μM): 8.5%; Percentages of Cell Apoptosis ([3]; SW48, 0.5 μM): 18.3%; Percentages of Cell Apoptosis ([3]; SW48, 1 μM): 24.4%; Percentages of Cell Apoptosis ([3]; SW48, 2 μM): 37.3%; Induction of apoptosis [3]: potent in inducing apoptosis in SW48 cells; Percentage of Cell Cycle Distribution G0/G1 ([11]; SW48, 0.125 μM): 63.3%; Percentage of Cell Cycle Distribution G2/M ([11]; SW48, 0.125 μM): 17.4%; Percentage of Cell Cycle Distribution S ([11]; SW48, 0.125 μM): 19.3%; Percentage of Cell Cycle Distribution G0/G1 ([11]; SW48, 0.5 μM): 61.8%; Percentage of Cell Cycle Distribution G2/M ([11]; SW48, 0.5 μM): 27.8%; Percentage of Cell Cycle Distribution S ([11]; SW48, 0.5 μM): 10.4%; Percentage of Cell Cycle Distribution G0/G1 ([11]; SW48, 1 μM): 57.7%; Percentage of Cell Cycle Distribution G2/M ([11]; SW48, 1 μM): 29.8%; Percentage of Cell Cycle Distribution S ([11]; SW48, 1 μM): 12.5%; Percentage of Cell Cycle Distribution G0/G1 ([11]; SW48, 2 μM): 53.9%; Percentage of Cell Cycle Distribution G2/M ([11]; SW48, 2 μM): 32.5%; Percentage of Cell Cycle Distribution S ([11]; SW48, 2 μM): 13.6%; Cell cycle arrest [11]: significantly induced cell cycle arrest in the G2/M phase in SW48 cells
